#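 Here, GI50 denotes the concentration required for 50% inhibition of growth. TGI marks complete inhibition of growth.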
# Key:
# Test in all cases: growth of human tumour cells (NCI), 384-well format
# MDA-MB-468 breast = test system: MDA-MB-468 breast
# SK-MEL-5 melanoma = test system: SK-MEL-5 melanoma
# NCI-H522 lung = test system: NCI-H522 lung
# CAKI-1 renal = test system: CAKI-1 renal
# UO-31 renal = test system: UO-31 renal
# HCC-2998 colon = test system: HCC-2998 colon
# SN12C renal = test system: SN12C renal
# HOP-62 NSCLC = test system: HOP-62 NSCLC
# K-562 leukemia = test system: K-562 leukemia
# T-47D breast = test system: T-47D breast
# MDA-MB-435 melanoma = test system: MDA-MB-435 melanoma
# COLO 205 colon = test system: COLO 205 colon
# SK-MEL-28 melanoma = test system: SK-MEL-28 melanoma
Structure (SMILES),GI50 (MDA-MB-468 breast) [µM],TGI (MDA-MB-468 breast) [µM],GI50 (SK-MEL-5 melanoma) [µM],TGI (SK-MEL-5 melanoma) [µM],GI50 (NCI-H522 lung) [µM],TGI (NCI-H522 lung) [µM],GI50 (CAKI-1 renal) [µM],TGI (CAKI-1 renal) [µM],GI50 (UO-31 renal) [µM],TGI (UO-31 renal) [µM],GI50 (HCC-2998 colon) [µM],TGI (HCC-2998 colon) [µM],GI50 (SN12C renal) [µM],TGI (SN12C renal) [µM],GI50 (HOP-62 NSCLC) [µM],TGI (HOP-62 NSCLC) [µM],GI50 (K-562 leukemia) [µM],TGI (K-562 leukemia) [µM],GI50 (T-47D breast) [µM],TGI (T-47D breast) [µM],also measured
C[C@@H](Oc1cc(-n2cnc3ccc(CN4CCN(C)CC4)cc32)sc1C(N)=O)c1ccccc1C(F)(F)F,0.214,0.446,0.359,1.64,0.206,0.445,1.63,4.5,2.67,10.3,0.595,1.89,2.89,15.4,0.465,2.34,0.307,1.01,1.83,5.23,GI50 (MDA-MB-435 melanoma): 0.244 µM; TGI (MDA-MB-435 melanoma): 0.602 µM; GI50 (COLO 205 colon): 0.256 µM; TGI (COLO 205 colon): 0.617 µM; GI50 (SK-MEL-28 melanoma): 1.53 µM; TGI (SK-MEL-28 melanoma): 2.94 µM
Cc1cc(-c2nc(C(=O)Nc3cc4oc(N5CCOCC5)nc4nc3N3CC[C@@H](O)C3)co2)ccn1,8.63,33.1,11.6,59,4.32,22.7,8.01,38.3,33.5,> 100,21.2,> 100,21.5,> 100,15.3,> 100,34.9,> 100,11.8,88,GI50 (MDA-MB-435 melanoma): 29.3 µM; TGI (MDA-MB-435 melanoma): > 100 µM; GI50 (COLO 205 colon): 20.4 µM; TGI (COLO 205 colon): 50.2 µM; GI50 (SK-MEL-28 melanoma): 49.6 µM; TGI (SK-MEL-28 melanoma): > 100 µM
